Experiments:
[1] = system: normal human control plasma; assay: activated partial thromboplastin time (aPTT) clotting assay
Protocol: The effect of the nanocomplexes on a physiologic coagulation pathway was tested using a standard activated partial thromboplastin time (aPTT) clotting assay, which is also used to monitor heparin levels of patients. This assay measures the amount of time needed for a plasma sample to form a clot in vitro when the contact pathway of coagulation is triggered by addition of an exogenous aPTT reagent. For the assay, varying concentrations of nanocomplexes or free heparin were added to 50 μl of APTT reagent (Thermo Scientific) at 37° C. for 3 minutes. Subsequently, 50 μl of 25 mM CaCl2 (Sigma) pre-incubated at 37° C. were added to samples and clotting was monitored via absorbance at 605 nm with a SpectraMAX Plus spectrophotometer ([…]).

[2] = system: thromboplastin-induced model of pulmonary thromboembolism; assay: thromboplastin-induced model of pulmonary thromboembolism; assay type: in vivo; details: mice
Protocol: To evaluate the ability of nanocomplexes to prevent thrombosis in vivo, a thromboplastin-induced model of pulmonary thromboembolism was utilized. […] For the pulmonary embolism assay, bovine fibrinogen (Sigma) was reacted with near-infrared fluorochromes (Vivotag-750-NHS, Perkin-Elmer) at a 2:1 fluorophore:protein molar ratio in PBS for 1 hour and purified by column centrifugation (100 kDa cutoff, Millipore) to remove unreacted fluorophores. Ampules of thromboplastin from rabbit brain (Sigma, #44213) were reconstituted with 2 mL of PBS each.
To ascertain the initial dosing ranges for the nanocomplexes, mice were dosed with thromboplastin and escalating doses of free heparin (40 U/kg, 100 U/kg and 200 U/kg heparin). Deposition of VT750-fibrin in the lungs of the mice was quantified using ex vivo infrared imaging. […] Accordingly, the dose of nanocomplexes corresponding to heparin doses of 200 U/kg was chosen for subsequent experiments.
Mice (n=5 per condition) were anesthetized with isofluorane gas and co-administered nanocomplexes (200 U/kg), free heparin (200 U/kg), or PBS control and 1 nmol of VT750-fibrinogen via tail vein injection. After 5 minutes, mice were injected with thromboplastin (2 uL/g). After 30 minutes, mice were euthanized with CO2 and the lungs were harvested and imaged on the LI-COR Odyssey Infrared Imaging System. Fibrin deposition was then quantified using ImageJ software. For histologic analysis, paraffin-embedded sections of lungs were prepared (Koch Institute Histology Core). Lungs were first fixed by incubating in 4% paraformaldehyde overnight. Hematoxylin and eosin […] staining of lung sections was used to visualize clots in the lungs.

[3] = system: thrombin generation in human plasma; assay: real-time thrombin generation assay in human plasma
Protocol: To further analyze the anticoagulant mechanism of the nanocomplexes, we performed real-time thrombin generation assays in human plasma. For this assay, varying concentrations of nanocomplexes or free heparin were added to 20 μL of control normal human plasma (Thermo Scientific). Real time thrombin generation was measured using the Technothrombin TGA kit (Technoclone) using the RD reagent according to manufacturer instructions. The fluorescence was monitored using a TECAN Infinite M200 Pro and thrombin generation was calculated using the corresponding Excel evaluation software provided by Technoclone.

mice = assay: Tail bleeding time after tail transection; assay type: in vivo; details: 200 U/kg intravenously
Protocol: To assess the effect of nanocomplex administration on bleeding tail transection on mice was performed five minutes after they were treated intravenously with nanocomplexes. Specifically, mice (n=5-7 per condition) were anesthetized with isofluorane gas and administered nanocomplexes (200 U/kg, n=5), heparin (200 U/kg, n=7), or PBS control (n=5). After 5 minutes, 2 mm of distal mouse tail was removed by scalpel. Bleeding time was determined by lightly dabbing the tail with kimwipe tissues (Kimtech) until bleeding fully ceased for at least 1 minute. All experimental protocols involving animals were approved by the MIT Committee on Animal Care.

increase of mean bleeding time over PBS control (mice): greater than 280% | mean bleeding time (mice; tail transection after 5 minutes): ~9.2 min
Substance: heparin [free heparin]
aPTT clotting time ([1]; 0.4 U/mL): ~44 s | aPTT clotting time relative to control ([1]; 0.4 U/mL): ~1.5 × of control | aPTT clotting time ([1]; 0.8 U/mL): ~44 s | aPTT clotting time relative to control ([1]; 0.8 U/mL): ~1.5 fold over control | aPTT clotting time ([1]; 2 U/mL): ~136 s | aPTT clotting time relative to control ([1]; 2 U/mL): ~5 fold over control | aPTT clotting time relative to control ([1]; 2 U/mL, listed as heparin): ~5 x of control | VT750-fibrin deposition in the lungs ([2]; 40 U/kg, with thromboplastin): did not significantly reduce | VT750-fibrin deposition in the lungs ([2]; 100 U/kg, with thromboplastin): did not significantly reduce | histological analysis of lung microvessels (hematoxylin and eosin) ([2]; 200 U/kg, thromboplastin 2 uL/g): largely patent | reduction of VT750-fibrin deposition in the lungs ([2]; 200 U/kg, with thromboplastin): more than two-fold | reduction of ETP ([3]; 1.6 U/mL): ~80% | lag time (time to initial thrombin formation) ([3]; increasing concentrations): prolonged in a dose-dependent manner

From patent US20140364368A1, “STIMULUS RESPONSIVE NANOCOMPLEXES AND METHODS OF USE THEREOF” (MASSACHUSETTS INSTITUTE OF TECHNOLOGY, priority 2013, published 2014)
